# Measurements: patent publication US20240374746A1, “SIRP-ALPHA ANTIBODIES AND CONJUGATES” (Tallac Therapeutics, Inc., priority 2021, published 2024)
# pEC50: −log10 of the molar value.
# Legend:
# [1] = system: Ramos-Blue Cells NF-kB/AP-1 Reporter B lymphocytes; experiment: Ramos NFkb Reporter Assay; format: cell-based, human; conditions: 1 uM to 64 pM CpG, 24 h; compared to 12070 and ODN2006
# Procedure: For Ramos NFkb Reporter Assay, Ramos-Blue Cells NF-kB/AP-1 Reporter B lymphocytes were purchased from Invivogen. Cells were grown and maintained in complete DMEM supplemented with 2 mM L-glutamine, 10% FBS, 100 ug/mL Normacin, Pen-Strep, 100 ug/mL Zeocin. Stimulation of the Ramos-Blue cells was performed. Briefly, cells were rinsed in growth medium without antibiotics. Cells were counted and resuspended in fresh complete DMEM without selection antibiotics at a density of 2×10^6 cell/mL. 20 uL of 10 uM CpG 7-7, CpG 12070 and ODN2006 titrated 1:5 were added to a flat-bottom 96-well plate, 180 uL of the cell suspension were added to a final concentration of 1 uM to 64 pM of CpG. Plate was incubated at 37° C. in a 5% CO2 incubator for 24 h. On day of assay, QB reagent and QB buffer were thawed before us. Quanti-Blue solution was prepared by adding 1 mL of QB reagent and […] QB buffer to 98 mL of sterile water in a sterile glass bottle. 180 μL of Quanti-Blue solution was dispensed per well into a new flat-bottom 96-well plate. 20 μL of supernatant from treated Ramos-Blue cells was then added to the 96-well plate. Plate was ten incubated for 6 h. Optical density was measured at OD655 using a plate reader (Molecular Devices), and data was tabulated in GraphPad Prism 9.0.
# [2] = system: PBMC cells from three different donor lines (D559, D804 and D643); experiment: CpG activity on PBMCs from different donors (CD40 expression); format: cell-based, human; conditions: PBMCs of donors D559, D804 and D643; compared with 12070
# Procedure: Trima residuals were received from Vitalant and diluted 1:2 with Phosphate Buffered Saline (PBS, Gibco). Diluted blood was split into two tubes and underplayed with 15 mL Ficoll-Paque (GE Healthcare). Tubes were centrifuged for 30 minutes at 400×g. PBMCs were collected from the interface, resuspended and washed in FACS buffer (PBS with 0.5% Bovine Serum Albumin (Gibco)). After one wash, PBMCs were resuspended in Complete RPMI (RPMI+10% FBS).
# PBMCs were immediately plated onto a 96-well format (500K/well) in Complete RPMI. Five-fold serial dilutions were added to the cells from 1 uM to 64 pM of CpG oligonucleotides at 37° C. under 5% CO2 for 48 hours. Cells were pelleted by centrifugation for five minutes at 400×g and stained at 4° C. in Fixable Viability Dye eFluor 780 (Thermo Fisher) diluted 1:4000 in PBS. Cells were centrifuged and stained at 4° C. in FACS buffer for 30 minutes containing FcR Blocking Reagent (Miltenyi Biotec), anti-CD19, anti-CD20, anti-CD40, anti-HLADR and anti-CD80. Cells were centrifuged and washed twice in FACS buffer and fixed in 0.5% paraformaldehyde. Cells were analyzed on Attune NxT Flow Cytometer (Thermo Fisher), with subsequent data analysis by Flowjo 10.7 (Treestar). Dead cells were excluded by gating on the eFluor 780-negative population. B cells were identified as CD19+CD20+ cells and level of activation marker was assessed by median fluorescent intensity. […]
# [3] = system: CD14+ monocytes and dendritic cells; experiment: CD40 activation in myeloid cells by unconjugated CpG oligonucleotides; format: cell-based; conditions: human myeloid cells; 40 nM, 48 hours; compared to the 12070 CpG oligonucleotide
# Procedure: Trima residuals were received from Vitalant and diluted 1:3 with Phosphate Buffered Saline (PBS, Gibco). Diluted blood was underplayed with 15 mL Ficoll-Paque (GE Healthcare). Tubes were centrifuged for 30 minutes at 400×g with break off. PBMCs were collected from the interface, resuspended and washed in FACS buffer (PBS with 0.5% Bovine Serum Albumin (Gibco)). After one wash, PBMCs were resuspended in Complete RPMI (RPMI+10% FBS). PBMCs were immediately plated onto a 96-well format (1e6/well) in Complete RPMI. CpG oligonucleotides were incubated with the cells at 40 nM concentration at 37° C. under 5% CO2 for 48 hours. Cells were pelleted by centrifugation for five minutes at 400×g and stained at 4° C. in Fixable Viability Dye eFluor 780 (Thermo Fisher) diluted 1:5000 in PBS. Cells were centrifuged and stained at 4° C. in FACS buffer for 60 minutes containing FcR Blocking Reagent (Miltenyi Biotec), anti-CD14, anti-CD11c, anti-CD3, anti-CD19, anti-CD56, anti-CD16, anti-HLADR, anti-CD40, and anti-CD86 (Thermo Fisher, Biolegend). Cells were centrifuged and washed twice in FACS buffer and fixed in 0.5% paraformaldehyde. Cells were analyzed on Attune NxT Flow Cytometer (Thermo Fisher), with subsequent data analysis by Flowjo 10.7 (Treestar). Dead cells were excluded by gating on the eFluor 780-negative population. […] Levels of activation marker were assessed by median fluorescent intensity.
# dendritic cells [4] = experiment: Dendritic cell activation (CD40) in human PBMCs; format: cell-based; conditions: 24 hours
# Procedure: Trima residuals were received from Vitalant and diluted 1:3 with Phosphate Buffered Saline (PBS, Gibco). Diluted blood was underplayed with 15 mL Ficoll-Paque (GE Healthcare). Tubes were centrifuged for 30 minutes at 400×g with break off. PBMCs were collected from the interface, resuspended and washed in FACS buffer (PBS with 0.5% Bovine Serum Albumin (Gibco)). After one wash, PBMCs were resuspended in Complete RPMI (RPMI, 10% FBS, 1× Pen/Strep, 1× Glutamax). PBMCs were immediately plated onto a 96-well format (1e6/well) in Complete RPMI. Three-fold serial dilutions were added to the cells from 300 nM to 0.4 nM for anti-SIRP-α antibody (heavy chain comprising the sequence of SEQ ID NO:66 and light chain comprising the sequence of SEQ ID NO:75) and anti-SIRP-α conjugate (heavy chain comprising the sequence of SEQ ID NO:66 and a light chain comprising the sequence of SEQ ID NO:75, conjugated to CpG oligo 7-7 (SEQ ID NO:35)). Free CpG 7-7 (SEQ ID NO:35) was titrated from 3 μM to 4.12 nM. Cells were incubated at 37° C. under 5% CO2 for 24 hours. […] Cells were analyzed on Attune NxT Flow Cytometer (Thermo Fisher), with subsequent data analysis by Flowjo 10.7 (Treestar). […] Levels of activation marker were assessed by median fluorescent intensity.
# dendritic cells [5] = experiment: Dendritic cell activation (CD40) in cynomolgus PBMCs; format: cell-based; conditions: 48 hours
# Procedure: Cynomolgus whole blood was received from BioIVT and diluted 1:3 with Phosphate Buffered Saline (PBS, Gibco). Diluted blood was underplayed with 15 mL 90% Ficoll-Paque (GE Healthcare) in PBS solution. Tubes were centrifuged for 30 minutes at 400×g with break off. Cells were collected from the interface, resuspended and washed in FACS buffer (PBS with 0.5% Bovine Serum Albumin (Gibco)). After one wash, cells were resuspended in ACK lysis buffer (Gibco) for 15 min at room temperature, washed in FACs buffer and centrifuged before repeating. Purified PBMCs were resuspended in Complete RPMI (RPMI, 10% FBS, 1× Pen/Strep, 1× Glutamax). PBMCs were immediately plated onto a 96-well format (0.3e6/well) in Complete RPMI. Three-fold serial dilutions were added to the cells from 1 μM to 1.4 nM of CpG oligonucleotide and 300 nM to 0.4 nM of anti-SIRP-α antibody (heavy chain comprising the sequence of SEQ ID NO:66 and light chain comprising the sequence of SEQ ID NO:75) and the corresponding antibody:CpG conjugate (heavy chain comprising the sequence of SEQ ID NO: 66 and light chain comprising the sequence of SEQ ID NO:75, conjugated to CpG oligo 7-7 (SEQ ID NO:35)) at 37° C. under 5% CO2 for 48 hours. […] Cells were analyzed on Attune NxT Flow Cytometer (Thermo Fisher), with subsequent data analysis by Flowjo 10.7 (Treestar). […] Levels of activation marker were assessed by median fluorescent intensity.
# [6] = system: THP-1-Dual hTLR9 cell line, interferon regulatory factor (IRF) pathway; experiment: THP-1-Dual hTLR9 reporter assay, IRF pathway (secreted Lucia luciferase); format: cell-based; conditions: 24 hours; F(ab′)2 anti-human IgG Fcγ cross-linking agent; read-out: EC50 of IRF induction
# Procedure: THP-1-Dual hTLR9 cell line (thpd-nfis, Invivogen) was derived from human THP-1 monocytes engineered to overexpress the human TLR9 (hTLR9) gene and featuring two reporter genes allowing for simultaneous assessment of the NF-kB pathway by monitoring the activity of an inducible secreted embryonic alkaline phosphatase (SEAP), and the interferon regulatory factor (IRF) pathway by monitoring the activity of an inducible secreted Lucia luciferase. Briefly, 250,000 cells in 100 uL of growth media (RPMI 1640 (Gibco), 2 mM L-glutamine (Gibco), 25 mM HEPES (Gibco), 10% FBS (Gibco), 100 U/mL penicillin (Gibco), 100 ug/mL streptomycin (Gibco), 100 ug/mL Normacin (Invivogen) were plated in 96-well flat-bottom plates (Nunc). An 8 step 2-fold serial dilution of anti-SIRP-α antibody or anti-SIRP-α antibody conjugate was added to cells in 50 μL for a final concentration range of 200 nM-1.56 nM. 10 μg/mL of a F(ab′)2 fragment goat anti-human, IgG Fcγ fragment specific (Jackson Immuno Research) was added in 50 μL of growth media as a cross-linking agent. Cells were incubated at 37 C for 24 hours. NF-kB and IRF induction from supernatant was detected according to manufacturer's protocol. EC50 values were derived using three-parameter […] regression curve fir in Prism 9 (GraphPad), and data were presented as fold-over media control. […]
substance,measurement,setting,value
CpG 7-7 (DNA TCGTCGTGTCGTTT; modified_base 1 OTHER; 5-Bromo-2'-deoxyuridine; modified_base 13..14 OTHER; 2'-O-Methyl-Thymidine; modified_base 1..4 OTHER; phosphorothioate linkages; misc_feature 4^5 phosphotriester linker-PEG24-NH2; modified_base 5..9 OTHER; modified_base 9^10 OTHER; phosphorodithioate linkage; modified_base 10..14 OTHER; misc_feature 14 3' spacer C3),activity in NFkb reporter assay,[1],significantly higher activity
same,activity as observed by CD40 expression,[2],higher activities
same,activation of CD40,[3],higher activation of CD40
same,surface marker expression (CD40) on dendritic cells,dendritic cells [4],potent TLR9 agonist with targeted dendritic cell activation across species
same,surface marker expression (CD40) on dendritic cells,dendritic cells [5],potent TLR9 agonist with targeted dendritic cell activation across species
same,pEC50,[6],7.08
